# Measurements: patent EP0317873B1, “Radioiodinated benzamides and method of their use as radioimaging agents” (THE VANDERBILT UNIVERSITY, priority 1987, dated 1989)
# What was measured:
# D-2 receptor [1] = target: T1, D-2 receptor (Rattus norvegicus, UniProt P61169); assay: Displacement of [125I](S)-II binding to rat striatal membranes (receptor binding assay); settings: radioligand concentration 0.46 nM, nonspecific binding in the presence of 10 µM of (S)-II, 30 min at 37°C, read-out: [¹²⁵I]-(S) II binding IC₅₀
# T1 construct: 90 µL of the striatal membrane preparation; from tissue; host or cells: rat striatum (membrane preparation)
# T1 sequence (P61169 whole entry): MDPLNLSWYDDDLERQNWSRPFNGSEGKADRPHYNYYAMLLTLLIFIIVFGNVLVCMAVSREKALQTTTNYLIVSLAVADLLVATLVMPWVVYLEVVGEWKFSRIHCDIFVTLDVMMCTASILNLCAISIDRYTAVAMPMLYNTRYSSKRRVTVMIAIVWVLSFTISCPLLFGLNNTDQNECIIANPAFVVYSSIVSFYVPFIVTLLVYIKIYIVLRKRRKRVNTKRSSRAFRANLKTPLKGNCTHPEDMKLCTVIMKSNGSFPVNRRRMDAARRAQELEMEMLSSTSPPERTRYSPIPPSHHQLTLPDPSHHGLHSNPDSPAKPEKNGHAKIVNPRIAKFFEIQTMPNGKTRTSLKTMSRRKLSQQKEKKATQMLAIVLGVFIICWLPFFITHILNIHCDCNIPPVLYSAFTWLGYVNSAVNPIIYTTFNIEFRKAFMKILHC
# Method: Lett. 64:163-168 (1986). […] Male Sprague-Dawley rats (150-200 g) were killed by decapitation and their brains quickly removed and dissected on ice. Striata were dissected and homogenized in 40 vol of ice-cold Tris-HCl (50 mM) containing 123 mM NaCl, 5 mM KCl, 2 mM CaCl₂ and 1 mM MgCl₂ (pH 7.4) using a Brinkman Polytron. The suspension was centrifuged at 30,000 x g for 10 min at 4°C, and the pellet was resuspended in 40 vol of fresh buffer with polytron. The suspension was incubated at 37°C for 10 min, centrifuged again at 30,000 x g for 10 min (4°C) and the final pellet was resuspended with the polytron in 200 vol of ice cold buffer. […] Nonspecific binding was determined in the presence of 10 µM[…]. Tubes were incubated for 30 min at 37°C, poured over Whatman GF/B filters under vacuum, and the filters were rinsed three times with 4 mL of ice cold buffer. Radioactivity remaining on the filters was measured by liquid scintillation on a Quantum 9 Multichannel analyzer operating at 35% efficiency.
# D-2 receptor [2] = target: T1, D-2 receptor; assay: Displacement of [3H]sulpiride binding to rat striatal membranes (receptor binding assay); settings: read-out: [³H]sulpiride binding IC₅₀, radioligand concentration 2.9 nM, nonspecific binding in the presence of 10 µM sulpiride, 30 min at 37°C
# Method: Lett. 64:163-168 (1986). […] Male Sprague-Dawley rats (150-200 g) were killed by decapitation and their brains quickly removed and dissected on ice. Striata were dissected and homogenized in 40 vol of ice-cold Tris-HCl (50 mM) containing 123 mM NaCl, 5 mM KCl, 2 mM CaCl₂ and 1 mM MgCl₂ (pH 7.4) using a Brinkman Polytron. The suspension was centrifuged at 30,000 x g for 10 min at 4°C, and the pellet was resuspended in 40 vol of fresh buffer with polytron. The suspension was incubated at 37°C for 10 min, centrifuged again at 30,000 x g for 10 min (4°C) and the final pellet was resuspended with the polytron in 200 vol of ice cold buffer. Assay tubes contained […] or radioligand at 2.9 nM concentration and 90 µL of the striatal membrane preparation. Nonspecific binding was determined in the presence of 10 µM(-)[¹²⁵I](S)-II. Tubes were incubated for 30 min at 37°C, poured over Whatman GF/B filters under vacuum, and the filters were rinsed three times with 4 mL of ice cold buffer. Radioactivity remaining on the filters was measured by liquid scintillation on a Quantum 9 Multichannel analyzer operating at 35% efficiency.
# D-2 receptor [3] = target: T1, D-2 receptor; assay: Saturation binding of [125I](S)-II to rat striatal membranes (Scatchard analysis, time course)
# Method: Male Sprague-Dawley rats (150-200 g) were killed by decapitation and their brains quickly removed and dissected on ice. Striata were dissected and homogenized in 40 vol of ice-cold Tris-HCl (50 mM) containing 123 mM NaCl, 5 mM KCl, 2 mM CaCl₂ and 1 mM MgCl₂ (pH 7.4) using a Brinkman Polytron. The suspension was centrifuged at 30,000 x g for 10 min at 4°C, and the pellet was resuspended in 40 vol of fresh buffer with polytron. The suspension was incubated at 37°C for 10 min, centrifuged again at 30,000 x g for 10 min (4°C) and the final pellet was resuspended with the polytron in 200 vol of ice cold buffer. Assay tubes contained […] or radioligand at 2.9 nM concentration and 90 µL of the striatal membrane preparation. Nonspecific binding was determined in the presence of 10 µM(-)[¹²⁵I](S)-II. Tubes were incubated for 30 min at 37°C, poured over Whatman GF/B filters under vacuum, and the filters were rinsed three times with 4 mL of ice cold buffer. Radioactivity remaining on the filters was measured by liquid scintillation on a Quantum 9 Multichannel analyzer operating at 35% efficiency. […]
# [4] = at 37°C, rat striatal membranes
Structure (SMILES),IC50 (D-2 receptor [1]) [nM],IC50 (D-2 receptor [2]) [nM],"maximal number of binding sites (D-2 receptor [3]; Scatchard analysis of the saturation isotherm, rat striatal membranes) [fmol/mg protein]","Kd (D-2 receptor [3]; Scatchard analysis of the saturation isotherm, single set of binding sites, rat striatal membranes) [nM]",time binding remained stable (D-2 receptor [3]; [4]),time for binding to reach equilibrium (D-2 receptor [3]; [4]) [min],character of binding to rat striated membranes (D-2 receptor [3]; conditions of the receptor binding assay)
CCN1CCC[C@@H]1CNC(=O)c1cc(I)ccc1OC [(R)-II],169,146,,,,,
"CCN1CCC[C@H]1CNC(=O)c1cc(I)ccc1OC [(S)-II, (S)-N-[(1-ethyl-2-pyrrolidinyl)methyl]-5-iodo-2-methoxybenzamide]",5,,,,,,
CCN1CCC[C@H]1CNC(=O)c1cc([125I])ccc1OC [Example 1],,,169,1,at least 60 min,≤ 20,"saturable, reversible and stereospecific"
